# Assay results as given in paper PMC7616177, “From structure to clinic: Design of a muscarinic M1 receptor agonist with the potential to treat Alzheimer’s disease” (Cell, 2021).
# Like-named read-outs stand apart in the source and are kept apart here.
# Experiments:
# rats [1] = test: Cardiovascular telemetry in rats; conditions: telemetered rats
# M2-receptor = target: T1, M2-receptor (Homo sapiens, UniProt P08172); test: [3H]-NMS equilibrium radioligand binding, M2
# T1 sequence (P08172 1-466): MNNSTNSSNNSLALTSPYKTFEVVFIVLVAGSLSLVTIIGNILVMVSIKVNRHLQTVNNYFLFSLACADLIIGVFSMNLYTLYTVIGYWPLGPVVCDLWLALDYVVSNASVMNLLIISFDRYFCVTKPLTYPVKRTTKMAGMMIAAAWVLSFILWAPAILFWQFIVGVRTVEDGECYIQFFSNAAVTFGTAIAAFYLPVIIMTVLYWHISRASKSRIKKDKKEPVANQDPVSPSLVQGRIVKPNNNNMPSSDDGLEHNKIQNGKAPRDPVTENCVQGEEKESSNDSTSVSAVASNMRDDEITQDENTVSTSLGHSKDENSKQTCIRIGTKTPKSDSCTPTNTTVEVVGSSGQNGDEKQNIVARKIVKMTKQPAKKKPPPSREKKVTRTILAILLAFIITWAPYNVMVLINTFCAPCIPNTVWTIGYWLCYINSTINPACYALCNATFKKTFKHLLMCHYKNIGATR
# Experimental: (§1) Non-specific binding (NSB) was determined in the presence of 1 μM atropine). Reactions were terminated by rapid filtration onto GF/B filter paper (Whatman, Maidstone, UK) and three washes with 3 mL ice-cold 0.9% NaCl using a Brandel harvester (M-24TI; Brandel, Fort Lauderdale, FL). Membrane bound radioactivity was determined by liquid scintillation (Ultima Gold; PerkinElmer) counting.
# (§2) Data was analyzed using PRISM (GraphPad). For saturation binding, non-specific and total binding data were analyzed to a one site binding model. DPM was converted to fmol/mg to compare across constructs. […] […] The Cheng Prusoff equation was used to estimate pKi ([Cheng and Prusoff, 1973]).
# M3-receptor = target: T2, M3-receptor (Homo sapiens, UniProt P20309); test: [3H]-NMS equilibrium radioligand binding, M3
# T2 construct: expressed in transfected cells
# Experimental: as §1, §2
# rats [2] = test: Modified Irwin Functional Observation Battery; format: in vivo; conditions: rat
# [3] = Modified Irwin Functional Observation Battery; format: in vivo; conditions: plasma; rat, 100 mg/kg oral
# M4-receptor = target: T3, M4-receptor (Homo sapiens, UniProt P08173); test: [3H]-NMS equilibrium radioligand binding, M4
# T3 sequence (P08173 1-479): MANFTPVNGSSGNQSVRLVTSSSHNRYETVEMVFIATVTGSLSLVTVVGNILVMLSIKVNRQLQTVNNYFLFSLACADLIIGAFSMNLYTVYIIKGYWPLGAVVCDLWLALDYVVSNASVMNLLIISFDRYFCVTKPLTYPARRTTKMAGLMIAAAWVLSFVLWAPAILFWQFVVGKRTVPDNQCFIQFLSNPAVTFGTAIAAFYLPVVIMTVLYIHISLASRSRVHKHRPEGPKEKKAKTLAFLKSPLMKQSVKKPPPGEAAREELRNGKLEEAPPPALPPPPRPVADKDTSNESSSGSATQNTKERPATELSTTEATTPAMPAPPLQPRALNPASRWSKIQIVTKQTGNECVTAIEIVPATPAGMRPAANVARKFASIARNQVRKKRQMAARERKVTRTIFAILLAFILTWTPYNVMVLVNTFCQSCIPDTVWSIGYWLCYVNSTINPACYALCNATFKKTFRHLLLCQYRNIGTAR
# Experimental: as §1, §2
# healthy elderly subjects = test: Clinical fMRI Arena task in healthy elderly subjects; format: in vivo, human; set-up: Activation across a-priori regions during encoding and retrieval / Left hippocampus activation effect: dose or concentration left out as unconfirmed
# Excerpt: All functional MRI images were acquired on a 3T scanner using gradient echo-echo planar imaging (GRE-EPI: TR: […]; TE: 30 ms; 90-degree flip angle; slices: 53; voxel size 3.75x 3.75 mm) and an 8-channel head coil. All data processing was done using Statistical Parameteric Mapping (SPM) version 5 software. All functional images were co-registered to subjects own T1 weighted structural image for anatomical localization, realigned using a least-squares approach and a 6 parameter (rigid body) spatial translation, normalized to Montreal neurological institute (MNI) using a high dimensional, non-linear transformation and smoothed using 3D 7 mm Gaussian filter. A high pass filter was applied to remove low temporal frequency drift. Bilateral hippocampal and caudate masks based on previous publications using the Arena task were used for analysis ([Antonova et al., 2009], [2011]). The masks consisted of spheres of radius 6mm centered on co-ordinates from these papers.
# A block design was used to assess functional activation during encoding, retrieval, and rest (control) conditions of the Arena task. Beta-estimates of functional response during each condition were created by modeling signal changes convolved with a double gamma hemodynamic response function with peak responses at 4 and 8 s following stimulus onset for each individual. In the first level analysis, difference in beta estimates for encoding versus rest, and retrieval versus rest were derived. […] Functional responses in the a-priori ROIs were extracted using hippocampal, ventral striatum, and caudate masks derived from subject own T1 weighted image. To test for drug effects in these pre-specified regions an ANOVA including fixed-effect terms representing treatment group, study site as a between subject factor, and baseline MMSE score as covariate was used.
# [4] = Human plasma and CSF pharmacokinetics after single oral dose; format: in vivo; conditions: single 54 mg oral dose
# [5] = Rat CNS distribution and estimated unbound brain exposure; format: in vivo
# human M1 receptor = target: T4, human M1 receptor (Homo sapiens, UniProt P11229); test: pERK1/2 assay in CHO cells overexpressing human M1-receptor; format: cell-based
# T4 construct: expressed in transfected cells
# T4 sequence (P11229 1-460): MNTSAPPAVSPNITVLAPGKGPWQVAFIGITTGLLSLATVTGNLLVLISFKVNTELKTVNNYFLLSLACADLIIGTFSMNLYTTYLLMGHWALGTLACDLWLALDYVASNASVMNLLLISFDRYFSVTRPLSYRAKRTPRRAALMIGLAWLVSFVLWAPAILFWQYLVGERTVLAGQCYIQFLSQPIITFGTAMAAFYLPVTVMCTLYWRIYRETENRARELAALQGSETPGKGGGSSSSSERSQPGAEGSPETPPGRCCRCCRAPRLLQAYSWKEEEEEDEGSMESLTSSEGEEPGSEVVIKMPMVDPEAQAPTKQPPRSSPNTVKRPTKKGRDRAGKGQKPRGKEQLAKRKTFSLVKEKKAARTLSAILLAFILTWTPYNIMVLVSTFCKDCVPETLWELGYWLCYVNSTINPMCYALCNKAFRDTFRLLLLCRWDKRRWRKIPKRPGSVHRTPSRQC
# T2 sequence (P20309 whole entry): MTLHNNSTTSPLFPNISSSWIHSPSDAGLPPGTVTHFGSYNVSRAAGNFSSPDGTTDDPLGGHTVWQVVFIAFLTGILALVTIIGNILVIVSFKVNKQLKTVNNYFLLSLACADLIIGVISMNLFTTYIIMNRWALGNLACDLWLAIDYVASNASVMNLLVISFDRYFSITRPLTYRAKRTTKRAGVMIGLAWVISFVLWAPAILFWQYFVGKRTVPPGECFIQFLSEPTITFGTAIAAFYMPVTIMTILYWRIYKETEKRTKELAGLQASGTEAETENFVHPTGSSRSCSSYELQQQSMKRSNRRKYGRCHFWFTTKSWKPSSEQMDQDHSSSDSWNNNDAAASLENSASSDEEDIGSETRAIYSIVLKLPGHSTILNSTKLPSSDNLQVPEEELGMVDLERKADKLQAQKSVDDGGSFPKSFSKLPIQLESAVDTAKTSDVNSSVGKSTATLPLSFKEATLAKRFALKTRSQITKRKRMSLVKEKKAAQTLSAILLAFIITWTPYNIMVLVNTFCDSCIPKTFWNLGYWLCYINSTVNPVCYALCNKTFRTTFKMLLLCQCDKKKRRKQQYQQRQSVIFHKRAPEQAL
compound,measurement,setting,value
"CCOC(=O)N1CCC[C@H](N2CCC(C(=O)NC3(C)CCC3)CC2)CC1 [HTL9936, ethyl (S)-4-(4-((1-methylcyclobutyl)carbamoyl)piperidin-1-yl)azepane-1-carboxylate]",Cardiovascular effects at 3 mg/kg,rats [1]; 3 mg/kg oral,No significant effects
same,Heart rate and mean arterial blood pressure,"rats [1]; oral 3, 10, 30 and 100 mg/kg, 5 h post-dose average",dose-dependent increase in heart rate and mean arterial blood pressure
same,Ki,M2-receptor,3.16 µM
same,Binding to the M3-receptor,M3-receptor,no detectable binding
same,"Cu,pl",rats [2]; 100 mg/kg oral,"11,994 nM"
same,Seizure-like effects,rats [2]; oral dosing up to 100 mg/kg,complete absence of seizure-like effects
same,Cmax,[3],6400 ng/mL
same,Ki,M4-receptor,3.98 µM
same,Activation across a-priori regions during encoding and retrieval,healthy elderly subjects; 10.1 dose (so in the source),increased bilateral activation
same,Left hippocampus activation effect,healthy elderly subjects; 40.3 dose (so in the source),smaller effect
same,Arena task performance,"healthy elderly subjects; healthy elderly, i.v. infusion",did not significantly improve task performance
same,fMRI activation during encoding of spatial cues,"healthy elderly subjects; healthy elderly, i.v. infusion",significant drug by activation interaction effect in the left hippocampus
same,Predicted steady-state plasma concentration,"healthy elderly subjects; human, high dose 40.3 mg i.v.",100 ng/mL
same,Predicted exposure as multiple of human M1-receptor in vitro potency,"healthy elderly subjects; human, low and high doses",0.2- to 3.4 fold
same,Predicted steady-state plasma concentration,"healthy elderly subjects; human, low dose 10.1 mg i.v.",25 ng/mL
same,Tmax,"[4]; CSF, read-out: Time of maximum concentration in CSF",2 to 3 h
same,Tmax,"[4]; plasma, read-out: Plasma tmax",~0.5 h
same,Distribution into the CNS,[5]; 1 mg/kg intravenous and 10 mg/kg oral,significant distribution into the CNS
same,"Estimated unbound drug in the brain Cu,br",[5]; 3 mg/kg p.o.,79 nM
same,"Estimated unbound drug in the brain Cu,br",[5]; 10 mg/kg p.o.,262 nM
same,"Estimated unbound drug in the brain Cu,br",[5]; 30 mg/kg p.o.,786 nM
same,EC50,human M1 receptor,0.032 µM
